Assay [1] has as its system acetic acid-induced writhing in mice. Description: animal or person. It is filed as in vivo, Kunming mice. Particulars: for ID95 (95% inhibition dose) of aspirin: i.m.
For assay [2], the system named is heat-induced tail flick in mice. Particulars: mouse, in vivo.
Where [3] appears, read: Mus musculus, im, read-out: inhibition Rate (%).
[4] abbreviates: combined with small doses of TTX (1/25 and 1/50 LD50) versus aspirin alone.

“And” between values parts separate entries of the source, which are not always exact repeats. Equal entries are not always repeated.

As for `NC1=N[C@H](O)[C@H]2[C@H]3O[C@]4(O)O[C@@H]([C@@H](O)[C@@]2(N1)[C@@H]4O)[C@]3(O)CO` [TTX, Tetrodotoxin], the “Average Writhing movements” value in assay [1] (mouse, in vivo, 3 mg/kg) amounted to 28.2 ± 9.65; in assay [1] (mouse, in vivo, ip, 3 mg/kg), 23.2 ± 11.7. Moreover, the “analgesic effect with escalating doses” value in assay [2] was “did not increase markedly with escalating doses”.

Broadly, the inhibition is the change of the read-out against control, counted positive when it falls. As for `CC(=O)Oc1ccccc1C(=O)O` [ASP, Aspirin], the “Average Writhing movements” value in assay [1] (ASP alone 25 mg/kg i.m.) was found to be 25.1 ± 14.5; in assay [1] (ASP alone 50 mg/kg i.m.), 19.3 ± 13.8; in assay [1] (ASP alone 100 mg/kg i.m.), 12.0 ± 9.2; in assay [1] (ASP alone 150 mg/kg i.m.) it was 5.2 ± 5.7; in assay [1] (ASP alone 200 mg/kg i.m.) it was 2.7 ± 1.9. Besides, the inhibition at 25 mg/kg in assay [1] (setting [3]) was found to be 35.6%. The inhibition at 50 mg/kg in assay [1] (setting [3]) was determined as 50.6%. Moreover, the inhibition at 100 mg/kg in assay [1] (setting [3]) came out at 69.3%. For the same compound, in assay [1] (setting [3]), the inhibition at 150 mg/kg came to 86.6%. The inhibition at 200 mg/kg in assay [1] (setting [3]) is 93.2%. Further, the “ID95 (95% inhibition dose) of aspirin” value in assay [1] (aspirin alone) was 361.8 mg/kg; in assay [1] (aspirin alone, listed as aspirin), 361.8 mg/kg and 361.77 mg/kg; in assay [1] (aspirin combined with TTX 0.39 μg/kg (1/50 LD50)), 154.3 mg/kg and 154.33 mg/kg; in assay [1] (aspirin combined with TTX 0.79 μg/kg (1/25 LD50)) it was 94.5 mg/kg and 94.47 mg/kg. The “reduction of ID50 of aspirin” value in assay [1] (setting [4]) is “exceeded two folds”. In assay [1] (setting [4]), the “reduction of ID95 of aspirin” value is reported as “exceeded two folds”.

These data come from patent publication US20090105197A1 (priority 2001, published 2009).
